Measurements reported in patent US20170226139A1, “CRYSTALLINE SALTS OF (Z)-O-OCTADEC-9-EN-1-YL O,O-DIHYDROGEN PHOSPHOROTHIOATE” (priority 2013, published 2017).
Like-named read-outs stand apart in the source and are kept apart here.

Assays:
Human LPA1 = biological target: T1, Human LPA1 (Homo sapiens, UniProt Q92633); experiment: Calcium-mobilization assay (FURA-2), human LPA1 transfected cells; format: cell-based; details: for EC50 / Emax (% of LPA): mean
T1 construct: expressed in transfected cells; host or cells: mouse embryonic fibroblasts (MEF)
T1 sequence (Q92633 whole entry): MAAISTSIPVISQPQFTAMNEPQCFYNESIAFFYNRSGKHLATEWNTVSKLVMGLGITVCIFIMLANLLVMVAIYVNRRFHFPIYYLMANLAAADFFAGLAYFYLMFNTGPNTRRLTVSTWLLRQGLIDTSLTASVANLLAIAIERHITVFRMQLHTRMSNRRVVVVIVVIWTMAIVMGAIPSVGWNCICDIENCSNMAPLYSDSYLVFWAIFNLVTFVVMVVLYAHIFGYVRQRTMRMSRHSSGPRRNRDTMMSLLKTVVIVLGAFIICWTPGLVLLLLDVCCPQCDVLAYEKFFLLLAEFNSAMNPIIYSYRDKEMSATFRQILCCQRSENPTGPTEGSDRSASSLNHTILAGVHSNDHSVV
Experimental: (§1) We investigated structure-activity relationships across species, LPAR subtypes and between Rx100 and two known process impurities encountered in manufacture: Rx103 (‘E’ isomer) and Rx200 (oleyl phosphate and impurity, which can be an Rx100 degradant along with oleyl alcohol). Rx100, Rx103, Rx200 and native LPA were investigated at different human LPAR subtypes. In addition, the activity of these compounds was evaluated at LPA2 receptors from the rhesus, rat and mouse species. Human LPA1/2/3 subtypes were transfected into mouse embryonic fibroblasts (MEF) or rat hepatoma cells (RH7777)—both of which are normally non-responsive or null to LPA. Human LPA4 was transfected into Chinese hamster ovary (CHO) cells and LPA5 into the B103 neuroblastoma cell line. […] The B103 rat neuroblastoma cell line is endogenously nonresponsive to LPA but expresses heterologous LPA5 receptors well. […] LPAR activation elicits a G-protein-mediated transient rise in intracellular calcium level that is proportional to the concentration of LPA applied. The intracellular calcium level was quantified by the calcium-selective fluorescent indicator FURA-2 (e.g., increased intracellular calcium surge=increased fluorescence).

Human LPA3 = biological target: T2, Human LPA3 (Homo sapiens, UniProt Q9UBY5); experiment: Calcium-mobilization assay (FURA-2), human LPA3 transfected cells; format: cell-based; details: for EC50 / Emax (% of LPA): mean
T2 construct: expressed in transfected cells; host or cells: mouse embryonic fibroblasts (MEF) or rat hepatoma RH7777
T2 sequence (Q9UBY5 1-353): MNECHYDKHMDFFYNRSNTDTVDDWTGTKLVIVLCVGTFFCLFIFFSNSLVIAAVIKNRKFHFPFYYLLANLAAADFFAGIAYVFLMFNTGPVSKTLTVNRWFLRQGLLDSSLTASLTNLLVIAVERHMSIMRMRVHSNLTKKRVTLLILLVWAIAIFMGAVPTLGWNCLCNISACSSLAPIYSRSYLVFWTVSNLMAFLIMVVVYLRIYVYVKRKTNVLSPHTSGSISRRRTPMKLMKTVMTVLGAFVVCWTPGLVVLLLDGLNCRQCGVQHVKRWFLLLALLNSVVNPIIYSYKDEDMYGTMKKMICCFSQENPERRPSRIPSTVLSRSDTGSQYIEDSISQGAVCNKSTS
Experimental: as §1

Human LPA4 = biological target: T3, Human LPA4 (Homo sapiens, UniProt Q99677); experiment: Calcium-mobilization assay (FURA-2), human LPA4 in CHO cells; format: cell-based
T3 construct: expressed in transfected cells; host or cells: CHO
T3 sequence (Q99677 whole entry): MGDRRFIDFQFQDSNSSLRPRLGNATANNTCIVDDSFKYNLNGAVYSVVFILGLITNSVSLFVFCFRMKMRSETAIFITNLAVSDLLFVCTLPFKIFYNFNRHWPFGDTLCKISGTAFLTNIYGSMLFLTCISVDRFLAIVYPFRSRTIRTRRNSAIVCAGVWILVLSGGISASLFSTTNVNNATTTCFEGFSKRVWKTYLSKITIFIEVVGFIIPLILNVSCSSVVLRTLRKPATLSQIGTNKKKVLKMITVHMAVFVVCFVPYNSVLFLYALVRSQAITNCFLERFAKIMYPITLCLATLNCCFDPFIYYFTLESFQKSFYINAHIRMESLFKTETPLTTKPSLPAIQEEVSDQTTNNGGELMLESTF
Experimental: as §1

LPA5 = biological target: T4, LPA5 (Homo sapiens, UniProt Q9H1C0); experiment: Calcium-mobilization assay (FURA-2), LPA5 in B103 neuroblastoma cells; format: cell-based
T4 construct: expressed in transfected cells; host or cells: B103 rat neuroblastoma
T4 sequence (Q9H1C0 whole entry): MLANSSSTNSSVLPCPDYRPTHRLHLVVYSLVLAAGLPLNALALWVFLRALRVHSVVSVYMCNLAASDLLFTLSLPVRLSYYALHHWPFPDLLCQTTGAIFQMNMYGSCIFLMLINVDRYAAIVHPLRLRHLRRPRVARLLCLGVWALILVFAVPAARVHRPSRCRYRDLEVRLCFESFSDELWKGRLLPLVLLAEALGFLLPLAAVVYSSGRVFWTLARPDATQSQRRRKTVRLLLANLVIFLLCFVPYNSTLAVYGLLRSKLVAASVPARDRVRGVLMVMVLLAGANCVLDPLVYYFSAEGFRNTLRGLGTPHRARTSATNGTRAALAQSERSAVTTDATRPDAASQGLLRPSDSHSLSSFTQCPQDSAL
Experimental: as §1

[1] = biological target: LPA2 receptors from the rhesus (Macaca mulatta, UniProt I2CXV3); experiment: Calcium-mobilization assay (FURA-2), rhesus LPA2; format: cell-based
Sequence of LPA2 receptors from the rhesus (I2CXV3 1-351): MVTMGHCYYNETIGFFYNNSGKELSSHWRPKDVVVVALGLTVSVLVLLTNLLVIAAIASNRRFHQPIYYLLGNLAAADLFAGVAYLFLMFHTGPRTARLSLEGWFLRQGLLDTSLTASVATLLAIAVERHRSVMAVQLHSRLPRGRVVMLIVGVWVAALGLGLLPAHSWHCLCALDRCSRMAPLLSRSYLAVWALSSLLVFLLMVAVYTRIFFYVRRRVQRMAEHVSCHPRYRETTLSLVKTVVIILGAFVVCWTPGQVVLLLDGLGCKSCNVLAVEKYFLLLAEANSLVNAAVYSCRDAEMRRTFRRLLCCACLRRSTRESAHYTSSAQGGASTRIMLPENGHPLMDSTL
Experimental: as §1

[2] = biological target: LPA2 receptors from the rat (Rattus norvegicus, UniProt A0ABK0LT65); experiment: Calcium-mobilization assay (FURA-2), rat LPA2; format: cell-based
Sequence of LPA2 receptors from the rat (A0ABK0LT65 1-348): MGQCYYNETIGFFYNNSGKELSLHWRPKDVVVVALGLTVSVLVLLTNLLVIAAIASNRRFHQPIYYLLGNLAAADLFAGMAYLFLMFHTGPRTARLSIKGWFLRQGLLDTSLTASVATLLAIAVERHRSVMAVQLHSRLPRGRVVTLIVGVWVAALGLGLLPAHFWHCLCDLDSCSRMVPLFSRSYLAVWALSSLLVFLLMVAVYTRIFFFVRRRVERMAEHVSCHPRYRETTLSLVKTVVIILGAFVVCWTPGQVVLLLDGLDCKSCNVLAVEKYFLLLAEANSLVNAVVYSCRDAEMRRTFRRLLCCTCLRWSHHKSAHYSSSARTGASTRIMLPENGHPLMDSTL
Experimental: as §1

[3] = biological target: T5, LPA2 receptors from the mouse (Mus musculus, UniProt Q9JL06); experiment: Calcium-mobilization assay (FURA-2), mouse LPA2; format: cell-based
T5 construct: expressed in transfected cells
T5 sequence (Q9JL06 whole entry): as the sequence (A0ABK0LT65 1-348) above, with V153A, V189A, F211Y, T310M, H316S, H321R, S324A, R327Q, H341R counted along it
Experimental: as §1

[4] = tested on: lysophosphatidic acid receptor (LPAR); experiment: Calcium-mobilization assay, overall statements for all species and LPAR subtypes tested; format: cell-based
Excerpt: The compound was medicinally designed as an LPA analog with the goal of decreasing the otherwise rapid metabolism of LPA itself. […] These receptors are ubiquitous by tissue and in those eukaryotes investigated. […] Thus, the mechanism of drug action for GI-ARS protection is activation of the transmembrane G protein-coupled lysophosphatidic acid receptor (LPAR) and, more specifically, the LPAR2 GPCR subtype. The primary pharmacodynamics is that LPAR2 activation leads to a cascade of intracellular events that switch cells from an apoptotic to a repair/regenerative pathway.
as §1
Oleyl alcohol is, of course, a common component of many non-toxic ingested or dermally applied substances.

Control CHO = experiment: Calcium-mobilization assay, untransfected Control CHO cells; format: cell-based, Chinese hamster
Experimental: as §1

Human LPA2 = Human LPA2 (Homo sapiens, UniProt Q9HBW0); experiment: Calcium-mobilization assay (FURA-2), human LPA2 transfected cells; format: cell-based; set-up: expressed in transfected cells; host or cells: mouse embryonic fibroblasts (MEF) or rat hepatoma RH7777
Sequence of Human LPA2 (Q9HBW0 whole entry): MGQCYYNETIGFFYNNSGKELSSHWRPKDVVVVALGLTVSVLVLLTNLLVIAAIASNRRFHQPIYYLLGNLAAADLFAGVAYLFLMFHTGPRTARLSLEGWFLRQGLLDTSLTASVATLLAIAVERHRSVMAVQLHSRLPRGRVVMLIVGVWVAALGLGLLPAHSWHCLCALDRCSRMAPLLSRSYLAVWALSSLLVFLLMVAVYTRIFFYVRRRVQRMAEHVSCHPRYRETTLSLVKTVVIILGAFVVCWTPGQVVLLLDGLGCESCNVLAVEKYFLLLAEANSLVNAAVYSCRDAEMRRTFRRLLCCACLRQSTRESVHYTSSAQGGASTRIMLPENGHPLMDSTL
Experimental: as §1

[5] = RH7777, read-out: Emax (% of LPA)

In the case of `CCCCCCCC/C=C/CCCCCCCCOP(O)(O)=S` [Rx103], the EC50 (Human LPA1; EC50 [nM], LPA1 DKO MEF, human) is reported as 367 nM, the EC50 (Human LPA1; EC50 [nM], LPA1 RH7777, human) is reported as 1710 nM and the Emax (Human LPA1; [5]) is reported as 75%. For the same compound, the Emax (Human LPA1; read-out: Emax (% of LPA)) was 90%, the EC50 (Human LPA3; EC50 [nM], LPA3 DKO MEF, human) was 61 nM and the EC50 (Human LPA3; EC50 [nM], LPA3 RH7777, human) was 74 nM. The Emax (Human LPA3; [5]) was 77%, the Emax (Human LPA3; read-out: Emax (% of LPA)) was 100% and the EC50 (Human LPA4) was greater than 5000 nM. The Emax (Human LPA4; CHO, read-out: Emax (% of LPA)) was 88%, the EC50 (LPA5) was 83 nM and the Emax (LPA5; B103, read-out: Emax (% of LPA)) was 103%. For the same compound, the EC50 [1] was 133 nM, the Emax ([1]; read-out: Emax (% of LPA)) was 90% and the EC50 [2] was 133 nM. The Emax ([2]; read-out: Emax (% of LPA)) was 87.6%, the EC50 [3] was 355 nM and the Emax ([3]; read-out: Emax (% of LPA)) was 100%. The “LPAR activation” value [4] was “has activity but has a uniformly reduced EC50 and Emax”, the EC50 (Control CHO; Cricetulus griseus, CHO) was greater than 5000 nM and the Emax (Control CHO; Cricetulus griseus, CHO, read-out: Emax (% of LPA)) was 12%. For the same compound, the EC50 (Human LPA2) was 241 nM and the Emax (Human LPA2; read-out: Emax (% of LPA)) was 70%.
In the case of `CCCCCCCC/C=C\CCCCCCCCOP(=O)(O)O` [Rx200, oleyl phosphate], the “Emax (% of LPA)” value (Human LPA1; LPA1 DKO MEF, human) is reported as 53 % of LPA, the EC50 (Human LPA1; LPA1 DKO MEF, human, read-out: EC50) is reported as 1360 nM and the “Emax (% of LPA)” value (Human LPA1; LPA1 RH7777, human) is reported as 83 % of LPA. The EC50 (Human LPA1; LPA1 RH7777, human, read-out: EC50) was 328 nM, the “Emax (% of LPA)” value (Human LPA3; LPA3 DKO MEF, human) was 34 % of LPA and the EC50 (Human LPA3; LPA3 DKO MEF, human, read-out: EC50) was greater than 5000 nM. For the same compound, the “Emax (% of LPA)” value (Human LPA3; LPA3 RH7777, human) was 61 % of LPA, the EC50 (Human LPA3; LPA3 RH7777, human, read-out: EC50) was 747 nM and the “Emax (% of LPA)” value (Human LPA4; LPA4 CHO, human, mean) was 70 % of LPA. For the same compound, the EC50 (Human LPA4; LPA4 CHO, human, mean, read-out: EC50) was 737 nM, the “Emax (% of LPA)” value (LPA5; LPA5 B103, human, mean) was 100 % of LPA and the EC50 (LPA5; LPA5 B103, human, mean, read-out: EC50) was 167 nM. For the same compound, the “EC50 [nM]” value ([1]; LPA2 DKO MEF, rhesus, mean) was “No”, the “Emax (% of LPA)” value ([1]; LPA2 DKO MEF, rhesus, mean) was “No” and the “EC50 [nM]” value ([2]; LPA2 DKO MEF, rat, mean) was “No”. For the same compound, the “Emax (% of LPA)” value ([2]; LPA2 DKO MEF, rat, mean) was “No”, the “EC50 [nM]” value ([3]; LPA2 DKO MEF, mouse, mean) was “No” and the “Emax (% of LPA)” value ([3]; LPA2 DKO MEF, mouse, mean) was “No”. The “LPAR activation” value [4] was “virtually inactive”, the “Emax (% of LPA)” value (Control CHO; Control CHO (untransfected; endogenously expresses LPA1)) was 12% and the EC50 (Control CHO; Control CHO (untransfected; endogenously expresses LPA1), read-out: EC50) was 965 nM. The “EC50 [nM]” value (Human LPA2; LPA2 DKO MEF, human, mean) was “No” and the “Emax (% of LPA)” value (Human LPA2; LPA2 DKO MEF, human, mean) was “No”.
